Tests used:
[1] = system: iNKT cells; assay: Upregulation of activation markers CD25 and CD69 on iNKT cells; type: cell-based; settings: mouse splenocytes stimulated overnight; data not shown
[2] = system: 24.9.E NKT cell hybridoma; assay: Plate-bound mCD1d hybridoma stimulation assay, 24.9.E; type: cell-based, mouse
Description: (§1) Plate-bound mCD1d hybridoma stimulation assay. Protocol was modified from that of Gumperz et al. (Gumperz, J. E., et al., Immunity, 12(2):211-221 (2000)). mCD1d dimer/Ig fusion protein (BD Biosciences) was incubated with the indicated concentrations of glycolipid in pH 5 sodium acetate buffer containing 0.01% Tween20 and 45 μg/ml saposin C (provided by Nico Tjandra and Motoshi Suzuki [both from National Heart, Lung, and Blood Institute, NIH, Bethesda, Md., USA]) overnight at 37° C. The mCD1d dimers loaded with glycolipid were loaded onto 96-well Protein G Plates (Pierce, Rockford, Ill.) and incubated for 48 hours at 37° C. The plates were washed with PBS and tissue culture media to remove anything not coated on the plates. 1×10^5 24.9. E or DN32.D3 iNKT hybridoma cells were added to each well and incubated at 37° C. and 5% CO2 for 24 hours. Supernatants were collected and analyzed for IL-2 by ELISA.

[3] = system: IFN-γ, IL-4, IL-13, IL-12 (p70), and TNF-α in plasma; assay: In vivo cytokine assay (plasma, multiplex); parameters: species or system BALB/c mice; settings: 0-24 hours; for IFN-γ in plasma: 50 pmoles i.p. after CT26 i.v., FIG. 8A; for IL-4 in plasma: FIG. 8C; for IL-13 in plasma: FIG. 8E
Description: FIGS. 8A-8E show graphs where the cytokine production induced by the glycolipid panel was tested in vivo. BALB/c mice were challenged with CT26 (5×10^5) i.v. followed by 50 pmoles of glycolipid or vehicle control i.p. at time 0. Mice were bled retroorbitally at 0, 3, 6, 12, and 24 hours, and the amount of IFN-γ (8A), TNF-α (8B), IL-4 (8C), IL-12 (p70) (8D), and IL-13 (8E) in plasma was determined. Each data point represents mean±SD of triplicates. […] Little cytokine production was detected following OCH and AH04-2 administration. β-ManCer induced very little cytokine production except for some IL-12 and TNF-α.
In vivo cytokine assay. The concentration of IFN-γ, IL-4, IL-13, IL-12 (p70), and TNF-α in plasma samples was determined by MILLIPLEX cytokine multiplex immunoassay kit (Millipore, Billerica, Mass.) using a Bio-Plex system (Bio-Rad, Hercules, Calif.) according to manufacturer's instructions.

[4] = system: activated NKT cells; assay: Anergy: re-stimulation of splenocytes one month after in vivo treatment; parameters: species or system mice; settings: for IFN-γ production on re-stimulation, compared to cells from vehicle-treated mice: 48 hours of re-stimulation, FIG. 13B; for Splenocyte proliferation on re-stimulation, compared to cells from vehicle-treated mice: re-stimulation with α-GalCer or β-ManCer, 3H-thymidine, 72-hour culture, FIG. 13A
Description: FIG. 13A is a graph showing splenocyte proliferation measured by ^3H-thymidine incorporation during the final 8 hours of a 72-hour culture after being re-stimulated in culture. Pretreatment with α-GalCer induces anergy but pretreatment with β-ManCer induces much less anergy.
FIG. 13B is a graph showing the amount of IFN-γ produced by the splenocyte culture after 48 hours of re-stimulation.
It is known that α-GalCer induces strong anergy of activated NKT cells for over a month after in vivo stimulation. […] Mice were treated with α-GalCer, β-ManCer, or vehicle, and one month later, splenocytes were re-stimulated, and the degree of activation was measured by proliferation and IFN-γ production.

[5] = system: BALB/c splenocytes; assay: In vitro cytokine assay (ELISA); type: cell-based, BALB/c mice; settings: 48 hours; for IFN-γ production in vitro / IL-4 production in vitro / IL-13 production in vitro: ELISA; for IFN-γ production in vitro: FIG. 7A; for IL-4 production in vitro: FIG. 7B; for IL-13 production in vitro: FIG. 7C
Description: In vitro cytokine assay. Splenocytes (8×10^5/well of 96 well plates) from BALB/c mice were stimulated with glycolipid or solvent control for 48 hours. Supernatants were collected, and the concentration of IFN-γ, IL-4, or IL-13 was determined by ELISA.

[6] = system: B16F10 melanoma lung metastasis; assay: In vivo lung metastasis assay, B16F10 melanoma; settings: C57BL/6 mice, dose titration; FIG. 12
Description: (§2) In vivo lung metastasis assay. 5×10^5 CT26 cells in 0.2 ml PBS were injected i.v. into the tail vein. Glycolipid or vehicle control (0.00025% Tween 20) was injected i.p. (in 0.2 ml PBS) within one hour after tumor challenge. Mice were sacrificed 12-16 days after tumor challenge, and lungs were stained and fixed and metastases were enumerated as previously described (Park, J. M., et al., International J. of Cancer, 114:80-87 (2004)). The same protocol was used for the B16F10 cell line, except that lungs were perfused with PBS instead of ink before removal.

[7] = system: iNKT cells; assay: In vitro iNKT activation (CFSE dilution, splenocytes); type: cell-based, mice; settings: for Proliferation of iNKT cells (CFSE dilution): 3.5-day stimulation of mouse splenocytes, FIG. 3
Description: In vitro iNKT activation. Splenocytes were harvested from mice (n=3), and erythrocytes were depleted with ACK Lysis Buffer (Lonza, Walkersville, Md.). Cells were labeled with 0.1 μM CFSE (Invitrogen, Carlsbad, Calif.) for 15 minutes at room temperature. Labeled cells (4×10^6 cells/well of 24-well plate) were stimulated for 3.5 days with glycolipid or vehicle control. At the end of the culture, cells were harvested and stained with PBS57-loaded CD1d tetramer (NIH Tetramer Facility) and anti-CD3 (clone 145-2C11, Biolegend). The fluorescence of stained cells was measured by FACSCalibur (BD Biosciences), and data were analyzed by Flowjo (Tree Star, Inc., Ashland, Oreg.).

[8] = system: DN32.D3 NKT cell hybridoma; assay: Plate-bound mCD1d hybridoma stimulation assay, DN32.D3; type: cell-based, mouse
Description: as §1

[9] = system: CT26 lung metastasis; assay: In vivo lung metastasis assay, CT26 colon carcinoma; parameters: species or system BALB/c mice; settings: for Effect of TNF-α blockade (TNF-αR-Fc, etanercept) on protection: 100 μg etanercept every other day, FIG. 10C; for Effect of NOS inhibition (L-NAME vs D-NAME) on tumor protection: WT mice, 0.2 mg L-NAME i.p., FIG. 6, 10A; for Rank order of tumor protection: dose of 50 pmoles; for Tumor protection in IFN-γ knockout mice: IFN-γ−/− BALB/c
Description: as §2
For CD8^+T and NK cell depletion, mice were treated with anti-CD8 (200 μg/injection), anti-asialo GM1 (25 μl/injection), or control antibodies 1 day prior to tumor challenge, the day of challenge, and 5 and 10 days following tumor challenge. CD8^+T and NK cell depletion of >90% was confirmed by flow cytometric staining for CD8 (clone 53-6.7, BD Biosciences, Rockville, Md.) and pan-NK cell marker (clone DX5, eBioscience, San Diego, Calif.) at the conclusion of the experiment. For Gr-1^+ cell depletion, mice were injected i.p. with 100, 50, or 1 μg anti-Gr-1 antibody, 16 and 40 hours after tumor challenge. CD11b^+Gr-1^high cell depletion of >99% and CD11b^+Gr-1^intermediate cell depletion of >80% by 100 μg of anti-Gr-1 antibodies, was confirmed by flow cytometric staining for CD11b (clone M1/70, eBioscience), Gr-1 (clone RB6-8C5, BD Biosciences), Ly-6C (clone AL-21, BD Biosciences) and Ly6G. (clone 1A8, BD Biosciences). Where indicated, mice received 0.2 mg L-NAME or D-NAME i.p. twice per day on the day of tumor challenge, the day after tumor challenge, and once daily for 2 weeks after tumor injection. Blockade of TNF-α was achieved by administration of 100 μg of etanercept every other day, beginning immediately following tumor challenge, per the method of Fichtner-Feigl, S., et al., Cancer Res., 68:3467-3475 (2008). For PPARγ inhibition, mice were treated 0.15 mg/ml GW9662 (200 μL i.p.) or vehicle control (0.5% DMSO in PBS) immediately following tumor challenge, and then 30 minutes prior to glycolipid administration, via the method of Coste, A., et al., J. Immunol., 180:4939-4947 (2008).

## CCCCCCCCCCCCCCCCCCCCCCCCCC(=O)N[C@@H](COC1OC(CO)C(O)C(O)C1O)[C@H](O)[C@H](O)CCCCCCCCCCCCCC (stereo partly drawn) [β-ManCer, 2-hexacosanoylamino-1-O-β-mannopyranosyl-D-ribo-1,3,4-octadecanetriol]
[1]
  Upregulation of CD25 and CD69 on iNKT cells: induced upregulation
[2]; 24.9.E
  Increase in IL-2 production over unloaded mCD1d: 25 fold
[2]; 24.9.E, 24 hours, no APCs, FIG. 5
  IL-2 production, glycolipid-loaded mCD1d dimers: able to induce IL-2 production
[2]; 24.9.E, FIG. 5
  IL-2 production, soluble glycolipid in the absence of CD1d: failed to induce IL-2 production above background
[2]; stated for the 24.9.E and DN32.D3 hybridomas together
  IL-2 production, difference (less) versus α-GalCer: 10- to 50 fold
[3]
  IFN-γ in plasma: no substantial increase
[3]; 50 pmoles i.p.
  IL-12 in plasma: only a modest increase
  TNF-α in plasma: only a modest increase
  IL-4 in plasma: no substantial increase
  IL-13 in plasma: no substantial increase
[4]
  IFN-γ production on re-stimulation, compared to cells from vehicle-treated mice: slight reduction
  Splenocyte proliferation on re-stimulation, compared to cells from vehicle-treated mice: slight reduction
[5]; IFN-γ, IL-4, IL-13
  Cytokine production in vitro (overall): least cytokine production
[5]; glycolipid less than 30 nM
  Cytokines at concentrations less than 30 nM: no cytokines detected
[6]
  Tumor protection against B16F10 melanoma lung metastasis, relative to α-GalCer: at least as potent
[7]; 3.5-day stimulation
  Inhibition of iNKT proliferation by CD1d-blocking antibody: 86%
[7]
  Proliferation of iNKT cells (CFSE dilution): 40%
[7]; 3.5-day stimulation, CD1d-blocking antibody
  Proliferation of iNKT cells with CD1d-blocking antibody: 5.4%
[8]; DN32.D3
  Increase in IL-2 production over unloaded mCD1d: over 500 fold
[8]; DN32.D3, 24 hours, no APCs, FIG. 5
  IL-2 production, glycolipid-loaded mCD1d dimers: able to induce IL-2 production
[8]; DN32.D3, FIG. 5
  IL-2 production, soluble glycolipid in the absence of CD1d: failed to induce IL-2 production above background
[9]
  Effect of TNF-α blockade (TNF-αR-Fc, etanercept) on protection: completely reversed the protection
[9]; 0.15 mg/ml GW9662 200 μL i.p., 50 pmoles glycolipid, FIG. 2C
  Effect of PPARγ inhibition with GW 9662 on induced protection: no effect
[9]; CT26 lung metastasis, 50 vs 5,000 pmoles
  Potency of tumor protection relative to α-ManCer and β-GalCer: 100 fold
[9]; IFN-γ knockout mice, 50 pmoles, p=0.0079, FIG. 9A
  Fewer lung nodules compared to vehicle control mice: 50%
[9]; IFN-γ−/− mice, L-NAME, FIG. 10B
  Protection in IFN-γ−/− mice when NOS was inhibited: completely lost
[9]; Jα18KO BALB/c mice, FIG. 2B
  Tumor protection in Jα18KO mice (lack only iNKT cells): All protection was lost
[9]; WT BALB/c, glycolipid i.p. within one hour after tumor challenge, β-ManCer 50 pmoles, FIG. 2A
  Protection against CT26 lung metastasis: strong protection
[9]; 50 pmoles glycolipid
  Effect of NOS inhibition (L-NAME vs D-NAME) on tumor protection: significantly inhibited protection
[9]; anti-Gr-1 antibodies, FIG. 10D
  Effect of depletion of Gr-1+ cells on tumor protection: no effect
[9]; FIG. 2D
  Rank order of tumor protection: similarly protective

## CCCCC/C=C\C/C=C\CCCCCCCCCC(=O)N[C@@H](CO[C@H]1O[C@H](CO)[C@H](O)[C@H](O)[C@H]1O)[C@H](O)[C@H](O)CCCCCCCCCCCCCC [C20:2, reference compound]
[3]; 50 pmoles i.p.
  IL-4 in plasma: increased
  IL-13 in plasma: increased
[5]
  IFN-γ production in vitro: lower IFN-γ level
  IL-4 production in vitro: higher amounts
  IL-13 production in vitro: higher amounts
[9]; 50 pmoles, FIG. 9A
  Tumor protection in IFN-γ knockout mice: completely failed to induce any tumor protection
[9]; 50 pmoles glycolipid
  Effect of NOS inhibition (L-NAME vs D-NAME) on tumor protection: no effect
[9]; FIG. 2D
  Rank order of tumor protection: similarly protective

## CCCCCCCCCCCCCCCCCCCCCCCC(=O)N[C@@H](COC1OC(CO)C(O)C(O)C1O)[C@H](O)[C@H](O)CCCCC (stereo partly drawn) [OCH]
[3]; 50 pmoles i.p.
  Cytokine production in vivo (overall): Much less cytokine production
[5]
  IFN-γ production in vitro: lower IFN-γ level
  IL-4 production in vitro: higher amounts
  IL-13 production in vitro: higher amounts
[9]; FIG. 2D
  Rank order of tumor protection: significantly less tumor killing

## CCCCCCCCCCCCCCCCCCCCCCCCCC(=O)N[C@@H](CO[C@H]1O[C@H](CO)[C@H](O)[C@H](O)[C@H]1O)[C@H](O)[C@H](O)CCCCCCCCCCCCCC [α-GalCer, α-galactosylceramide, reference compound]
[3]
  IFN-γ in plasma: most IFN-γ
[4]
  IFN-γ production on re-stimulation, compared to cells from vehicle-treated mice: severely suppressed
  Splenocyte proliferation on re-stimulation, compared to cells from vehicle-treated mice: severely suppressed
[5]
  IFN-γ production in vitro: greatest IFN-γ production
[7]
  Proliferation of iNKT cells (CFSE dilution): 44%
[9]
  Effect of TNF-α blockade (TNF-αR-Fc, etanercept) on protection: no effect
[9]; 50 pmoles, FIG. 9A
  Tumor protection in IFN-γ knockout mice: completely failed to induce any tumor protection
[9]; 50 pmoles glycolipid
  Effect of NOS inhibition (L-NAME vs D-NAME) on tumor protection: no effect
[9]; FIG. 2D
  Rank order of tumor protection: greatest protection
[9]; results at the 5 pmole dose, FIG. 2D
  Potency relative to β-ManCer: about a log more potent

From patent US9517243B2, “Beta-mannosylceramide and stimulation of NKT cell anti-tumor immunity” (The United States of America, as represented by the …, priority 2010, dated 2016)
